Tests used:
[1] = system: Heliothis virescens (Tobacco Budworm); assay: Heliothis virescens egg/larval mortality on artificial diet, 24-well plate; type: in vivo; settings: for 1-1 observed control %: 1-1 alone; for 2-7 Observe control %: 2-7 alone; for DMET observed control %: DMET alone; for SPAT observed control %: SPAT alone
Procedure: Heliothis virescens (Tobacco Budworm)
Eggs (0-24 h old) are placed in 24-well microtiter plate on artificial diet and treated with test solutions (DMSO) by pipetting. After an incubation period of 4 days, samples are checked for larval mortality.
(§1) When a compound applied alone gave no control at a particular rate, it is assumed that lower rates of that compound alone also give no control. DMET=deltamethrin, SPAT=spirotetramat, 1-1 is compound 1 in Table 1, 2-7 is compound 7 in Table 2.

[2] = system: Tetranychus urticae (Two-Spotted Spider Mite); assay: Tetranychus urticae mixed population mortality on sprayed bean leaf discs; type: in vivo; settings: for 2-7 observed control %: 2-7 alone; for SPAT observed control %: SPAT alone
Source text: Tetranychus urticae (Two-Spotted Spider Mite)
Bean leaf discs on agar in 24-well microtiter plates are sprayed with test solutions (DMSO). After drying, the leaf discs are infested with mite populations of mixed ages. 8 days later, discs are checked for mixed population mortality.
as §1

SMILES: N#Cc1cc(C2=NOC(c3cc(Cl)cc(Cl)c3)(C(F)(F)F)C2)ccc1-n1cncn1 (racemic) [1-1]
- 1-1 observed control % ([1]; 0.78 ppm): 0%
- 1-1 observed control % ([1]; 1.56 ppm): 0%
- 1-1 observed control % ([1]; 3.125 ppm): 45%
- 1-1 observed control % ([1]; 6.25 ppm): 85%
- 1-1 observed control % ([1]; 12.5 ppm): 85%
- 1-1 observed control % ([1]; 25 ppm): 90%

SMILES: N#Cc1cc(C2=NCC(c3cc(Cl)c(Cl)c(Cl)c3)(C(F)(F)F)C2)ccc1-n1cncn1 (racemic) [2-7]
- 2-7 observed control % ([2]; 0.187 ppm): 0%
- 2-7 observed control % ([2]; 0.375 ppm): 0%
- 2-7 observed control % ([2]; 0.75 ppm): 25%
- 2-7 observed control % ([2]; 1.5 ppm): 75%
- 2-7 observed control % ([2]; 3.0 ppm): 80%
- 2-7 Observe control % ([1]; 0.025 ppm): 0%
- 2-7 Observe control % ([1]; 0.05 ppm): 10%
- 2-7 Observe control % ([1]; 0.1 ppm): 55%
- 2-7 Observe control % ([1]; 0.2 ppm): 80%
- 2-7 Observe control % ([1]; 0.4 ppm): 90%

SMILES: CC1(C)[C@H](C(=O)O[C@H](C#N)c2cccc(Oc3ccccc3)c2)[C@@H]1C=C(Br)Br [DMET, deltamethrin]
- DMET observed control % ([1]; 0.0125 ppm): 0%
- DMET observed control % ([1]; 0.025 ppm): 0%
- DMET observed control % ([1]; 0.05 ppm): 0%
- DMET observed control % ([1]; 0.1 ppm): 0%
- DMET observed control % ([1]; 0.2 ppm): 0%
- DMET observed control % ([1]; 0.4 ppm): 0%
- DMET observed control % ([1]; 0.8 ppm): 0%

SMILES: CCOC(=O)OC1=C(c2cc(C)ccc2C)C(=O)N[C@]12CC[C@@H](OC)CC2 [SPAT, spirotetramat]
- SPAT observed control % ([2]; 1.56 ppm): 0%
- SPAT observed control % ([2]; 3.125 ppm): 0%
- SPAT observed control % ([2]; 12.5 ppm): 65%
- SPAT observed control % ([2]; 25 ppm): 80%
- SPAT observed control % ([2]; 50 ppm): 85%
- SPAT observed control % ([2]; 100 ppm): 85%
- SPAT observed control % ([2]; 200 ppm): 85%
- SPAT observed control % ([1]; 1.56 ppm): 0%
- SPAT observed control % ([1]; 3.12 ppm): 0%
- SPAT observed control % ([1]; 3.125 ppm): 0%
- SPAT observed control % ([1]; 6.25 ppm): 0%
- SPAT observed control % ([1]; 12.5 ppm): 0%
- SPAT observed control % ([1]; 25 ppm): 0%
- SPAT observed control % ([1]; 50 ppm): 0%
- SPAT observed control % ([1]; 100 ppm): 0%
- SPAT observed control % ([1]; 200 ppm): 60%

From patent US9510595B2, “Pesticidal mixtures” (Syngenta Participations AG, priority 2012, dated 2016)
